From patent publication US20060069132A1, “Azolecarboxamide herbicides” (priority 2004, published 2006)

Assays:
barnyardgrass = experiment: Test C flooded paddy test; type: in vivo, Echinochloa crus-galli; conditions: for Plant response rating, Barnyardgrass: 500 g ai/ha, visual rating after 12 to 14 days
Procedure, shortened: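 After a postemergence application at 1 to 4 leaves (plants 2–18 cm high), or at 2 leaves for barnyardgrass in flooded paddy, plants stayed in the greenhouse for 12 to 14 days. Damage was then judged visually relative to control plants, with 100 indicating complete control.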

woolly cupgrass = experiment: Test C pre-/postemergence herbicide test; type: in vivo, Eriochloa villosa; conditions: for Cupgrass, Woolly plant response rating: 500 g ai/ha
Procedure, shortened: (§1)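 Pre- and postemergence application, solvent/surfactant formulation; post at 1- to 4-leaf stage (2–18 cm). Greenhouse 12–14 d. Visual rating vs controls, 0 = no effect, 100 = complete control.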

pigweed = experiment: Test C pre-/postemergence herbicide test; type: in vivo, Amaranthus retroflexus; conditions: for Pigweed plant response rating: 500 g ai/ha
Procedure, shortened: as §1

[1] = tested on: common (oilseed) sunflower; experiment: Test C pre-/postemergence herbicide test; type: in vivo, Helianthus annuus; conditions: for Plant response rating (0 = no effect, 100 = complete control), Sunflower: 62 g ai/ha; for Plant response rating (0 = no effect, 100 = complete control), Sunflower / Plant response rating, Sunflower: preemergence; for Plant response rating, Sunflower: 125 g ai/ha, scale 0 (no effect) to 100 (complete control), visual, 12 to 14 days; for Sunflower plant response rating: Preemergence, 500 g ai/ha, scale 0 to 100, 0 no effect, 100 complete control
Procedure, shortened: as §1

giant foxtail = experiment: Test C pre-/postemergence herbicide test; type: in vivo, Setaria faberi; conditions: for Foxtail, Giant plant response rating: 500 g ai/ha
Procedure, shortened: as §1

rice = experiment: Test B pre-/postemergence herbicide test; type: in vivo, Oryza sativa; conditions: preemergence
Procedure, shortened: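 Species tested were Echinochloa crus-galli, Ipomoea coccinea, Xanthium strumarium and Oryza sativa, treated both before emergence and at the 1- to 4-leaf stage; rice and barnyardgrass were also tested under flooding at 2 leaves. Greenhouse incubation lasted 13–15 days before visual 0–100 scoring.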

large crabgrass = experiment: Test A pre-/postemergence herbicide test; type: in vivo, Digitaria sanguinalis
Procedure, shortened: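 Visual injury rating on a 0–100 scale (0 no effect, 100 complete control) versus untreated controls, about ten days after treatment in greenhouse. Pre: directed soil spray onto seeded sandy loam. Post: spray to runoff on plants 2–10 cm tall at one- to two-leaf stage.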

kochia = experiment: Test C pre-/postemergence herbicide test; type: in vivo, Kochia scoparia; conditions: for Kochia plant response rating: Preemergence, 500 g ai/ha
Procedure, shortened: as §1

eastern black nightshade = experiment: Test C pre-/postemergence herbicide test; type: in vivo, Solanum ptycanthum; conditions: for Plant response rating (0 = no effect, 100 = complete control), Nightshade: 62 g ai/ha; for Plant response rating (0 = no effect, 100 = complete control), Nightshade / Plant response rating, Nightshade: preemergence; for Plant response rating, Nightshade: 125 g ai/ha, scale 0 (no effect) to 100 (complete control), visual, 12 to 14 days; for Nightshade plant response rating: Preemergence, 500 g ai/ha, scale 0 to 100, 0 no effect, 100 complete control
Procedure, shortened: as §1

morningglory = experiment: Test C pre-/postemergence herbicide test; type: in vivo, Ipomoea coccinea; parameters: key to Plant response rating, Morningglory: 0 = no effect, 100 = complete control; conditions: for Morningglory plant response rating: 500 g ai/ha
Procedure, shortened: as §1

[2] = 62 g ai/ha, scale 0 to 100 (0 no effect, 100 complete control)
[3] = 125 g ai/ha, scale of 0 to 100, 0 is no effect, 100 is complete control
[4] = 250 g ai/ha, scale of 0 to 100, 0 is no effect, 100 is complete control
[5] = scale 0 to 100 (0 no effect, 100 complete control)
[6] = 125 g ai/ha, scale 0 (no effect) to 100 (complete control), visual, 12 to 14 days, preemergence
[7] = 250 g ai/ha, scale 0 to 100 (0 no effect, 100 complete control), visual, 12 to 14 days, preemergence
[8] = Preemergence, scale 0 to 100, 0 no effect, 100 complete control
[9] = 500 g ai/ha, visual rating 0-100, 0 no effect, 100 complete control
[10] = scale 0 to 100, 0 no effect, 100 complete control
[11] = Postemergence, 250 g ai/ha, scale 0 to 100, 0 no effect, 100 complete control
[12] = postemergence, 125 g ai/ha, scale 0 to 100
[13] = postemergence, 62 g ai/ha, scale 0 to 100
[14] = 125 g ai/ha, 0 to 100 scale, 0 is no effect, 100 is complete control
[15] = Postemergence, 500 g ai/ha, 0 to 100 scale, 0 no effect, 100 complete control
[16] = Postemergence, 2000 g ai/ha, 0 to 100 scale, 0 no effect, 100 complete control
[17] = Preemergence, 500 g ai/ha, visual rating, 0 to 100 scale (0 no effect, 100 complete control)
[18] = Preemergence, 2000 g ai/ha, visual rating, 0 to 100 scale (0 no effect, 100 complete control)

SMILES: CCn1nc(C(C)(C)C)cc1C(=O)Nc1cccc(S(=O)(=O)C(F)(F)F)c1 [Compound 134]
- Barnyardgrass plant response rating (barnyardgrass; [2]): 10
- Barnyardgrass plant response rating (barnyardgrass; [3]): 25
- Barnyardgrass plant response rating (barnyardgrass; [4]): 50
- Plant response rating, Barnyardgrass (barnyardgrass; [5]): 50
- Plant response rating (0 = no effect, 100 = complete control), Cupgrass, Woolly (woolly cupgrass; 62 g ai/ha, preemergence): 0
- Plant response rating, Cupgrass, Woolly (woolly cupgrass; [6]): 0
- Plant response rating, Cupgrass, Woolly (woolly cupgrass; [7]): 20
- Cupgrass, Woolly plant response rating (woolly cupgrass; [8]): 45
- Plant response rating (0 = no effect, 100 = complete control), Pigweed (pigweed; 62 g ai/ha, preemergence): 95
- Plant response rating, Pigweed (pigweed; [6]): 95
- Pigweed plant response rating (pigweed; [8]): 100
- Plant response rating (0 = no effect, 100 = complete control), Sunflower [1]: 0
- Plant response rating, Sunflower [1]: 0
- Sunflower plant response rating [1]: 0
- Plant response rating (0 = no effect, 100 = complete control), Foxtail, Giant (giant foxtail; 62 g ai/ha, preemergence): 0
- Plant response rating, Foxtail, Giant (giant foxtail; [6]): 0
- Plant response rating, Foxtail, Giant (giant foxtail; [7]): 0
- Foxtail, Giant plant response rating (giant foxtail; [8]): 85
- Plant response rating, Rice (rice; [9]): 50
- Crabgrass, Large plant response rating (large crabgrass; Postemergence, 250 g ai/ha, 0 to 100 scale, 0 no effect, 100 complete control): 20
- Plant response rating, Crabgrass, Large (large crabgrass; Postemergence, 1000 g ai/ha, 0 to 100 scale, 0 no effect, 100 complete control): 35
- Crabgrass, Large plant response rating (large crabgrass; Preemergence, 1000 g ai/ha, visual rating, 0 to 100 scale (0 no effect, 100 complete control)): 95
- Crabgrass, Large plant response rating (large crabgrass; preemergence, 250 g ai/ha, visual injury, 0 to 100 scale (0 no effect, 100 complete control)): 35
- Plant response rating (0 = no effect, 100 = complete control), Kochia (kochia; 62 g ai/ha, preemergence): 85
- Plant response rating, Kochia (kochia; [6]): 100
- Kochia plant response rating (kochia; [10]): 100
- Plant response rating (0 = no effect, 100 = complete control), Nightshade (eastern black nightshade): 90
- Plant response rating, Nightshade (eastern black nightshade): 95
- Nightshade plant response rating (eastern black nightshade): 100
- Plant response rating (0 = no effect, 100 = complete control), Morningglory (morningglory; 62 g ai/ha, preemergence): 0
- Plant response rating, Morningglory (morningglory; [6]): 0
- Morningglory plant response rating (morningglory; [8]): 75

SMILES: CCn1nc(C(C)(C)C)cc1C(=O)Nc1cccc(C(=O)NC2CC2)n1 [Compound 146]
- Barnyardgrass plant response rating (barnyardgrass; [2]): 0
- Barnyardgrass plant response rating (barnyardgrass; [3]): 0
- Barnyardgrass plant response rating (barnyardgrass; [4]): 0
- Plant response rating, Barnyardgrass (barnyardgrass; [5]): 20
- Plant response rating (0 = no effect, 100 = complete control), Cupgrass, Woolly (woolly cupgrass; 62 g ai/ha, preemergence): 0
- Plant response rating, Cupgrass, Woolly (woolly cupgrass; [6]): 0
- Plant response rating, Cupgrass, Woolly (woolly cupgrass; [7]): 0
- Cupgrass, Woolly plant response rating (woolly cupgrass; Postemergence, scale 0 to 100): 30
- Plant response rating, Cupgrass, Woolly (woolly cupgrass; [11]): 30
- Cupgrass, Woolly plant response rating (woolly cupgrass; [8]): 0
- Plant response rating, Cupgrass, Woolly (woolly cupgrass; [12]): 10
- Plant response rating, Cupgrass, Woolly (woolly cupgrass; [13]): 10
- Plant response rating (0 = no effect, 100 = complete control), Pigweed (pigweed; 62 g ai/ha, preemergence): 80
- Plant response rating, Pigweed (pigweed; [6]): 95
- Pigweed plant response rating (pigweed; Postemergence, scale 0 to 100): 100
- Plant response rating, Pigweed (pigweed; [11]): 100
- Pigweed plant response rating (pigweed; [8]): 100
- Plant response rating, Pigweed (pigweed; [12]): 90
- Plant response rating, Pigweed (pigweed; [13]): 80
- Plant response rating (0 = no effect, 100 = complete control), Sunflower [1]: 0
- Plant response rating, Sunflower [1]: 0
- Sunflower plant response rating [1]: 0
- Plant response rating (0 = no effect, 100 = complete control), Foxtail, Giant (giant foxtail; 62 g ai/ha, preemergence): 0
- Plant response rating, Foxtail, Giant (giant foxtail; [6]): 10
- Plant response rating, Foxtail, Giant (giant foxtail; [7]): 60
- Foxtail, Giant plant response rating (giant foxtail; Postemergence, scale 0 to 100): 10
- Plant response rating, Foxtail, Giant (giant foxtail; [11]): 0
- Foxtail, Giant plant response rating (giant foxtail; [8]): 80
- Plant response rating, Foxtail, Giant (giant foxtail; [12]): 0
- Plant response rating, Foxtail, Giant (giant foxtail; [13]): 0
- Plant response rating, Rice (rice; [9]): 40
- Plant response rating, Rice (rice; [14]): 10
- Crabgrass, Large plant response rating (large crabgrass; [15]): 15
- Plant response rating, Crabgrass, Large (large crabgrass; [16]): 55
- Crabgrass, Large plant response rating (large crabgrass; [17]): 70
- Crabgrass, Large plant response rating (large crabgrass; [18]): 80
- Plant response rating (0 = no effect, 100 = complete control), Kochia (kochia; 62 g ai/ha, preemergence): 50
- Plant response rating, Kochia (kochia; [6]): 50
- Plant response rating, Kochia (kochia; [11]): 20
- Kochia plant response rating (kochia; [10]): 100
- Plant response rating, Kochia (kochia; [13]): 5
- Plant response rating (0 = no effect, 100 = complete control), Nightshade (eastern black nightshade): 50
- Plant response rating, Nightshade (eastern black nightshade): 60
- Nightshade plant response rating (eastern black nightshade): 100
- Plant response rating (0 = no effect, 100 = complete control), Morningglory (morningglory; 62 g ai/ha, preemergence): 0
- Plant response rating, Morningglory (morningglory; [6]): 5
- Morningglory plant response rating (morningglory; Postemergence, scale 0 to 100): 0
- Plant response rating, Morningglory (morningglory; [11]): 0
- Morningglory plant response rating (morningglory; [8]): 50
- Plant response rating, Morningglory (morningglory; [12]): 0
- Plant response rating, Morningglory (morningglory; [13]): 0

SMILES: CCn1nc(C(C)(C)C)cc1C(=O)Nc1cccc(C#N)c1 [Compound 139]
- Barnyardgrass plant response rating (barnyardgrass; [2]): 15
- Barnyardgrass plant response rating (barnyardgrass; [3]): 40
- Barnyardgrass plant response rating (barnyardgrass; [4]): 55
- Plant response rating, Barnyardgrass (barnyardgrass; [5]): 65
- Plant response rating (0 = no effect, 100 = complete control), Cupgrass, Woolly (woolly cupgrass; 62 g ai/ha, preemergence): 0
- Plant response rating, Cupgrass, Woolly (woolly cupgrass; [6]): 10
- Plant response rating, Cupgrass, Woolly (woolly cupgrass; [7]): 55
- Plant response rating, Cupgrass, Woolly (woolly cupgrass; [11]): 5
- Plant response rating, Cupgrass, Woolly (woolly cupgrass; [12]): 0
- Plant response rating, Cupgrass, Woolly (woolly cupgrass; [13]): 0
- Plant response rating (0 = no effect, 100 = complete control), Pigweed (pigweed; 62 g ai/ha, preemergence): 100
- Plant response rating, Pigweed (pigweed; [6]): 100
- Plant response rating, Pigweed (pigweed; [11]): 80
- Plant response rating, Pigweed (pigweed; [12]): 65
- Plant response rating, Pigweed (pigweed; [13]): 50
- Plant response rating (0 = no effect, 100 = complete control), Sunflower [1]: 0
- Plant response rating, Sunflower [1]: 10
- Plant response rating (0 = no effect, 100 = complete control), Foxtail, Giant (giant foxtail; 62 g ai/ha, preemergence): 40
- Plant response rating, Foxtail, Giant (giant foxtail; [6]): 80
- Plant response rating, Foxtail, Giant (giant foxtail; [7]): 95
- Plant response rating, Foxtail, Giant (giant foxtail; [11]): 10
- Plant response rating, Foxtail, Giant (giant foxtail; [12]): 0
- Plant response rating, Foxtail, Giant (giant foxtail; [13]): 0
- Plant response rating, Rice (rice; [9]): 60
- Plant response rating, Rice (rice; [14]): 30
- Crabgrass, Large plant response rating (large crabgrass; [15]): 0
- Plant response rating, Crabgrass, Large (large crabgrass; [16]): 30
- Crabgrass, Large plant response rating (large crabgrass; [17]): 45
- Crabgrass, Large plant response rating (large crabgrass; [18]): 75
- Plant response rating (0 = no effect, 100 = complete control), Kochia (kochia; 62 g ai/ha, preemergence): 100
- Plant response rating, Kochia (kochia; [6]): 100
- Plant response rating, Kochia (kochia; [11]): 50
- Plant response rating, Kochia (kochia; [12]): 50
- Plant response rating, Kochia (kochia; [13]): 50
- Plant response rating (0 = no effect, 100 = complete control), Nightshade (eastern black nightshade): 95
- Plant response rating, Nightshade (eastern black nightshade): 100
- Plant response rating (0 = no effect, 100 = complete control), Morningglory (morningglory; 62 g ai/ha, preemergence): 0
- Plant response rating, Morningglory (morningglory; [6]): 10
- Plant response rating, Morningglory (morningglory; [11]): 60
- Plant response rating, Morningglory (morningglory; [12]): 50
- Plant response rating, Morningglory (morningglory; [13]): 0
